In brackets after ≈: the same amount, converted by molar mass.

The nature of data set [1]: Solubility in aqueous medium at pH 7.4. The format is physicochemical. The note with it: for solubility: aqueous medium, pH 7.4, aqueous buffer. An excerpt: In addition, some compounds have an unusually good solubility, for this active ingredient class, in aqueous medium under physiological conditions (Table 2).
Data set [2] addresses T1, human progesterone receptor A (Homo sapiens, UniProt P06401).
T1 construct: expressed in transfected cells; host or cells: SK-N-MC human neuroblastoma cells, stably transfected with pRChPR-A-neo and pMMTV-LUC
T1 sequence (P06401 1-769 isoform P06401-2): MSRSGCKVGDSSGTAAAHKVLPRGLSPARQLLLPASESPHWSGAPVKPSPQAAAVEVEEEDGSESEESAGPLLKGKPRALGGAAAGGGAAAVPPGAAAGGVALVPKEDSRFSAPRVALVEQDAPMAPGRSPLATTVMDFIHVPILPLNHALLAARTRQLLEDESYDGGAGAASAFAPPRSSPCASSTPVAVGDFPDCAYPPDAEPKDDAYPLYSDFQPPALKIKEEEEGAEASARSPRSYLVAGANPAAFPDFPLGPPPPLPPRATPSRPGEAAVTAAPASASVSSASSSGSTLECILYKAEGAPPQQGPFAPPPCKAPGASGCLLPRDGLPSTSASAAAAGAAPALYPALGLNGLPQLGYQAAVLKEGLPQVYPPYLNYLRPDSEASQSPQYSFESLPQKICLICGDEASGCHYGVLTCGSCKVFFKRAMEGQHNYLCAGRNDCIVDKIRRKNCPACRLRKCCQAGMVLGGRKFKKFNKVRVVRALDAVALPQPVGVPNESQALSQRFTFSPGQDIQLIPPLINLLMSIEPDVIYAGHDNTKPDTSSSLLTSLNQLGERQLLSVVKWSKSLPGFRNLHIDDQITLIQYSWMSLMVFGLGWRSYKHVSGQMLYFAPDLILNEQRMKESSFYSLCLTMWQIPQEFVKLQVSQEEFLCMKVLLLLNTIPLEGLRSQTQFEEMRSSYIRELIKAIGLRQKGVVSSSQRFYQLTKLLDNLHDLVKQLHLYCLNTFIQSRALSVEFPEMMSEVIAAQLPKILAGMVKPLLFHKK
The experiment in a line: Progesterone receptor-antagonistic action in stably transfected SK-N-MC cells with MMTV-LUC reporter (PR-A). The format is cell-based. The note with it: antagonistic potency against 0.1 nmol/l promegestone, 24 hours, luciferase. Summed up: (§1)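 SK-N-MC neuroblastoma cells stably expressing human PR-A or PR-B plus MMTV-LUC reporter, treated 24 h with test compound (0.01 nmol/l–[…]). Antagonist mode used co-treatment with 0.1 nmol/l promegestone; luciferase in lysates read as RLU, expressed as % efficacy and IC50/EC50.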

The nature of data set [3]: Metabolic stability in human liver microsomes. The format is in vitro ADME. The note with it: for Predicted clearance [l/h/kg] Human: 1 μM, well-stirred model. How it is done: (§2) Determination of Metabolic Stability in Human and Rat Liver Microsomes
Isolated human liver microsomes (HLM) were used to assess the metabolic stability of compounds of general formula I.
(§3) The incubations were conducted with 2.4 ml of HLM solution (protein content 0.5 mg/ml), 30 μl of the test compound (final concentration 1 μM) and 0.6 ml of the cofactor mixture (═NADPH-generating system composed of 3 IU glucose-6-phosphate dehydrogenase, 14.6 mg glucose-6-phosphate, 1.2 mg NADP) at 37° C. in 100 mM phosphate buffer at pH 7.4. Samples were taken at 6 time points (2-60 min) and precipitated with an equal volume of methanol, and the recovery of the test substances used in the supernatant was determined by LC-MS/MS analysis. The half-life of substance degradation determined therefrom was used to calculate what is called the intrinsic clearance of the substance in the liver microsome preparation. […] In addition, under the assumptions that (i) absorption of the test substance is 100%, and (ii) the first pass is completely reflected by liver microsome metabolism, a maximum oral bioavailability (Fmax) was calculated.

A short description of data set [4]: Metabolic stability in rat liver microsomes. It counts as in vitro ADME. The note with it: for Predicted clearance [l/h/kg] Rat: well-stirred model. The method, then: as §2, §3
Data set [5] addresses T2, human progesterone receptor B (Homo sapiens, UniProt P06401).
T2 construct: expressed in transfected cells; host or cells: SK-N-MC human neuroblastoma cells, stably transfected with pRChPR-B-neo and pMMTV-LUC
T2 sequence (P06401 1-933): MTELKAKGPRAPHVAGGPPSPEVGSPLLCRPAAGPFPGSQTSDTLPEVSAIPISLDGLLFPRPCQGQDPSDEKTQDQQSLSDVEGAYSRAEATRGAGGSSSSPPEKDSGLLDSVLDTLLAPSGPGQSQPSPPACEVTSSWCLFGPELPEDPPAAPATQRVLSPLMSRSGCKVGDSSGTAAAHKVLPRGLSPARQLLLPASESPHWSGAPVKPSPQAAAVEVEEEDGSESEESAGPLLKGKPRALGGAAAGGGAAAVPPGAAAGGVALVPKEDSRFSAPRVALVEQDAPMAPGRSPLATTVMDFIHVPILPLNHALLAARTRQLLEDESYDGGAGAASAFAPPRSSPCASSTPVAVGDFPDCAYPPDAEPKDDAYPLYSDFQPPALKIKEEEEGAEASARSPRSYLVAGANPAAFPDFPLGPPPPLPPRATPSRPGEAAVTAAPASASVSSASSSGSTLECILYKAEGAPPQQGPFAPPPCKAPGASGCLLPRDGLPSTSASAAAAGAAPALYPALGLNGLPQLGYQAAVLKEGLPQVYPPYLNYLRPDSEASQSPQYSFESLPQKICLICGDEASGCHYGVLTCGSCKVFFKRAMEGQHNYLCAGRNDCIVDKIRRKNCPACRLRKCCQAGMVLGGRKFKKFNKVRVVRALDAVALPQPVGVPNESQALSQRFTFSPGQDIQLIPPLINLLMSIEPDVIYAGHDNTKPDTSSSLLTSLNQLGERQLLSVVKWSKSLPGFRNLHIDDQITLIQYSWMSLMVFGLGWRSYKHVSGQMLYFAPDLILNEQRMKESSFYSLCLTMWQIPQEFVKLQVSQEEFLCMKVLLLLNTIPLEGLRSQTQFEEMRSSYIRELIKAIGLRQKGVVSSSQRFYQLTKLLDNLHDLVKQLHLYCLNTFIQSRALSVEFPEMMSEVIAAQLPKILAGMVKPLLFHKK
The experiment in a line: Progesterone receptor-antagonistic action in stably transfected SK-N-MC cells with MMTV-LUC reporter (PR-B). The format is cell-based. The note with it: antagonistic potency against 0.1 nmol/l promegestone, 24 hours, luciferase. Summed up:
as §1

By solubility is commonly meant how much of the substance goes into solution per volume. The low end stands for a poorly soluble substance, the high end for a readily soluble substance. By IC50 is commonly meant the concentration that gives 50% inhibition. A higher IC50 goes with a need for much substance. `C[C@]12C[C@H](c3cccc(/C=C/c4cccnc4)c3)C3=C4CCC(=O)C=C4CC[C@H]3[C@@H]1CC[C@@]2(O)C(F)(F)C(F)(F)F` [Example 22, (8S,11R,13S,14S,17S)-17-hydroxy-13-methyl-17-pentafluoroethyl-11-[3-((E)-2-pyridin-3-ylvinyl)phenyl]-1,2,6,7,8,11,12,13,14,15,16,17-dodecahydrocyclopenta[a]phenanthren-3-one] displayed a solubility in data set [1] of 6 µg/mL (≈ 10.5 µM). This molecule also returned an IC50 in data set [2] of 0.3 nM. Besides, in data set [3], the “Predicted Fmax [%] (maximum oral bioavailability) Human” value is given as 41% and the “Predicted clearance [l/h/kg] Human” value was 0.8 L/h/kg. Also, in data set [4], the “Predicted Fmax [%] (maximum oral bioavailability) Rat” value is recorded as 77% and the “Predicted clearance [l/h/kg] Rat” value is 1.0 L/h/kg. This molecule also gave an IC50 in data set [5] of 1 nM.

Regarding `C[C@]12C[C@H](c3cccc(/C=C/c4ccncc4)c3)C3=C4CCC(=O)C=C4CC[C@H]3[C@@H]1CC[C@@]2(O)C(F)(F)C(F)(F)F` [Example 23, (8S,11R,13S,14S,17S)-17-hydroxy-13-methyl-17-pentafluoroethyl-11-[3-((E)-2-pyridin-4-ylvinyl)phenyl]-1,2,6,7,8,11,12,13,14,15,16,17-dodecahydrocyclopenta[a]phenanthren-3-one], the solubility in data set [1] amounted to 8 µg/mL (≈ 14 µM). In addition, in data set [2], 0.2 nM corresponded to half-maximal inhibition (IC50). Also, in data set [3], the “Predicted Fmax [%] (maximum oral bioavailability) Human” value is reported as 67% and the “Predicted clearance [l/h/kg] Human” value was 0.4 L/h/kg. In data set [4], the “Predicted Fmax [%] (maximum oral bioavailability) Rat” value was 95% and the “Predicted clearance [l/h/kg] Rat” value is 0.2 L/h/kg. The same molecule returned an IC50 in data set [5] of 0.2 nM.

For `C[C@]12C[C@H](c3ccc(/C=C/CC(C#N)C#N)cc3)C3=C4CCC(=O)C=C4CCC3C1CC[C@@]2(O)C(F)(F)C(F)(F)F` (stereo partly drawn) [Example 27, 2-{(E)-3-[4-((8S,11R,13S,14S,17S)-17-hydroxy-13-methyl-3-oxo-17-pentafluoroethyl-2,3,6,7,8,11,12,13,14,15,16,17-dodecahydro-1H-cyclopenta[a]phenanthren-11-yl)phenyl]allyl}malonitrile], in data set [1], the solubility was 10 µg/mL (≈ 17.5 µM). This molecule came in with an IC50 in data set [2] of 0.2 nM. In data set [3], the “Predicted Fmax [%] (maximum oral bioavailability) Human” value was 26% and the “Predicted clearance [l/h/kg] Human” value is 0.98 L/h/kg. Also, in data set [4], the “Predicted Fmax [%] (maximum oral bioavailability) Rat” value is 79% and the “Predicted clearance [l/h/kg] Rat” value is 0.9 L/h/kg. In data set [5], this molecule showed an IC50 of 0.1 nM.

Take `C[C@]12C[C@H](c3ccc(/C=C/c4cccc(C(=O)O)c4)cc3)C3=C4CCC(=O)C=C4CC[C@H]3[C@@H]1CC[C@@]2(O)C(F)(F)C(F)(F)F` [Example 28, 3-{(E)-2-[4-((8S,11R,13S,14S,17S)-17-hydroxy-13-methyl-3-oxo-17-pentafluoroethyl-2,3,6,7,8,11,12,13,14,15,16,17-dodecahydro-1H-cyclopenta[a]phenanthren-11-yl)phenyl]vinyl}benzoic acid]: in data set [1] (aqueous medium under physiological conditions), the “solubility (in words)” value is recorded as “improved”. The molecule also displayed a solubility in data set [1] of 120 µg/mL (≈ 196 µM). For the same molecule, the midpoint of inhibition in data set [2], the IC50, lay at 0.06 nM. Further, in data set [3], the “Predicted Fmax [%] (maximum oral bioavailability) Human” value is 74% and the “Predicted clearance [l/h/kg] Human” value was 0.35 L/h/kg. Moreover, in data set [4], the “Predicted Fmax [%] (maximum oral bioavailability) Rat” value is reported as 97% and the “Predicted clearance [l/h/kg] Rat” value is 0.1 L/h/kg. This molecule displayed an IC50 in data set [5] of 0.1 nM.

On to `CCO/N=C/c1ccc([C@H]2C[C@@]3(C)[C@@H](CC[C@@]3(O)C(F)(F)C(F)(F)F)[C@@H]3CCC4=CC(=O)CCC4=C32)cc1` [Example 36, 4-((8S,11R,13S,14S,17S)-17-hydroxy-13-methyl-3-oxo-17-pentafluoroethyl-2,3,6,7,8,11,12,13,14,15,16,17-dodecahydro-1H-cyclopenta[a]phenanthren-11-yl)benzaldehyde O-ethyl oxime], for which, in data set [1], the solubility was found to be 5 µg/mL (≈ 9.3 µM). In addition, the midpoint of inhibition in data set [2], the IC50, lay at 0.08 nM. In addition, in data set [3], the “Predicted Fmax [%] (maximum oral bioavailability) Human” value is 72% and the “Predicted clearance [l/h/kg] Human” value is 0.36 L/h/kg. Moreover, in data set [4], the “Predicted Fmax [%] (maximum oral bioavailability) Rat” value is reported as 82% and the “Predicted clearance [l/h/kg] Rat” value is 0.8 L/h/kg. In data set [5], this molecule registered an IC50 of 0.08 nM.

The values are drawn from patent US9156877B2, “17-hydroxy-17-pentafluorethyl-estra-4,9(10)-dien-11-benzylidene derivatives, methods for the production thereof and use thereof for treating diseases” (Bayer Intellectual Property GmbH, priority 2009, dated 2015).
